Source: patent US20220387469A1, “METHOD OF UTILIZING ULTRAFINE BUBBLES” (Shiseido Company, Ltd., priority 2019, published 2022)

Assay: Permeation of adenosine into stratum corneum of forearm skin (tape peel, LC-MS quantification)
Format: in vivo, human
Details: forearm of a test subject, Formulation 1 that contains ultrafine bubbles (aerosol spray, actuator D391, nitrogen 0.9 MPa) applied first, then Formulation 2 (0.2% adenosine) applied for 10 minutes, 1 cm by 1 cm stratum corneum
Description: In order to provide Formulation 1 that contains ultrafine bubbles onto the skin, the aerosol container 10 was filled with Formulation 1, and the interior pressure was set to 0.9 MPa with nitrogen gas. The actuator “D391” having a flow rate adjusting mechanism produced by K. K. Mitani Valves was applied as the spray actuator 11.
That is, a liquid which was sprayed from the aerosol container 10 and Formulation 1 as an undiluted liquid were applied to two different locations on a forearm of a test subject. Thereafter, Formulation 2 that contains adenosine was applied onto each of the two locations for 10 minutes. Next, 1 cm by 1 cm squares of stratum corneum were peeled from the locations onto which the formulations were applied, stratum corneum components were extracted, and the amounts of adenosine were quantitatively analyzed by the LC-MS method (Liquid Chromatography Mass Spectrometry method).

## Nc1ncnc2c1ncn2[C@@H]1O[C@H](CO)[C@@H](O)[C@H]1O [adenosine]
  amount of adenosine within the stratum corneum, relative to the case that Formulation 1 that did not contain ultrafine bubbles was applied: 1.6 times
